Assays:
Type in all cases: biochemical
CDK1/cyclinB = molecular target: T1, CDK1/cyclinB (Homo sapiens, UniProt P06493); test: CDK1/cyclinB kinase assay, IMAP fluorescence polarization; conditions: read-out: CDK1 IC50
T1 construct: purchased Millipore
Procedure: (§1) Kinase assays were performed on recombinant purified enzymes using the non-radioactive IMAP fluorescence polarization assay format.
(§2) Compound stocks were prepared and diluted in DMSO and were added to kinase reactions at a 1/100 dilution for a final concentration of 1% DMSO. The components were added together to final concentrations listed in the tables below and incubated for two hours at room temperature.
(§3) The reactions were stopped by addition of stop solution.
The samples were allowed to incubate for one more hour at room temperature and then the fluorescence polarization was measured.

CDK2/cyclinA = molecular target: T2, CDK2/cyclinA (Homo sapiens, UniProt P24941); test: CDK2/cyclinA kinase assay, IMAP fluorescence polarization
T2 construct: purchased Millipore
Procedure: as §1, §2, §3
CDK2: final stop concentration is 1× Developer buffer (100% A), IMAP beads 1/400
(§4) The samples were allowed to incubate for one more hour at room temperature and then the fluorescence polarization was measured. The plate normalized millipolarization (mP) values were plotted against the log of compound concentration for each compound and IC50 values were calculated using the spotfire IC50 calculator and confirmed by visual analysis.

CDK9/cyclinT1 = molecular target: T3, CDK9/cyclinT1 (Homo sapiens, UniProt P50750); test: CDK9/cyclinT1 kinase assay, IMAP fluorescence polarization
T3 construct: purchased Millipore
Procedure: as §1, §2, §3
CDK9/CDK1/CDK7: final stop concentration is 1× Developer buffer (85% A/15% B), IMAP beads 1/400
as §4

T3 sequence (P50750 whole entry): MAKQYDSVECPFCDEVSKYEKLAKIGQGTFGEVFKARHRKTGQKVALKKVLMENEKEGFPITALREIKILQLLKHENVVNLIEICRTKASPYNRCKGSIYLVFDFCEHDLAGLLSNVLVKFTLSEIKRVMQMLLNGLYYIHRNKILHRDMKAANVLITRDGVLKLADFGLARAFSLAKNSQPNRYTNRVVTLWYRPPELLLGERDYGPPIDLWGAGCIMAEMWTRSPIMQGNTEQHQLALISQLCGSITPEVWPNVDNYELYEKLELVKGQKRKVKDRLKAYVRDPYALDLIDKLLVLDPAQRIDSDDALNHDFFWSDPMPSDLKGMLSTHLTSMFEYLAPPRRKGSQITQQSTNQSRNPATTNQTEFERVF
T3 sequence (O60563 whole entry partner): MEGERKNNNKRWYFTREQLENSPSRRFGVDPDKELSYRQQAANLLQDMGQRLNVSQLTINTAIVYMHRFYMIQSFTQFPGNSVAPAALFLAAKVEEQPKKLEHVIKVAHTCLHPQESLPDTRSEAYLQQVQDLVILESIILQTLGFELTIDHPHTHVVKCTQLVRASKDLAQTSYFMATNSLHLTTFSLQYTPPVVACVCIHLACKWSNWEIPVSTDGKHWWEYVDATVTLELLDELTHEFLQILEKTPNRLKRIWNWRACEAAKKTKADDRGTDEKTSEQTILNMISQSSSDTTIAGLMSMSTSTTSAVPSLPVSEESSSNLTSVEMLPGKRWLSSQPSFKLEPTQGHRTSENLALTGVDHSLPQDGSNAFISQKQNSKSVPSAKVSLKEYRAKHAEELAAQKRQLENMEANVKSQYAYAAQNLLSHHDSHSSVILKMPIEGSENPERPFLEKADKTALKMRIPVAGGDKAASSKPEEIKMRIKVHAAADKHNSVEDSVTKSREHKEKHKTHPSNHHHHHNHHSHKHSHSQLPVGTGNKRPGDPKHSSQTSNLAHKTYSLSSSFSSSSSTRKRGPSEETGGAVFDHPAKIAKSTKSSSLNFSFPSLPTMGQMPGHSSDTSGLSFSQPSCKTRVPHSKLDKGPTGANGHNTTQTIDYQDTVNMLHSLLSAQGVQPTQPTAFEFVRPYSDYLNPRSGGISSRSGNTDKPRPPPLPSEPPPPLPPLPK
T1 sequence (P06493 whole entry): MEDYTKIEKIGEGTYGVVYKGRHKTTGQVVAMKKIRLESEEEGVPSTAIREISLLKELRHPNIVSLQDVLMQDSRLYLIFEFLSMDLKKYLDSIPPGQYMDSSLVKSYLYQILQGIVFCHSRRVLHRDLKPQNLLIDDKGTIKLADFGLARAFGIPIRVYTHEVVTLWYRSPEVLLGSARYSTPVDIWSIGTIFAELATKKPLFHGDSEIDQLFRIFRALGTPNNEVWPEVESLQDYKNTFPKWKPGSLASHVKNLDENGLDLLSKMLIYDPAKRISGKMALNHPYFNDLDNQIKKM
T1 sequence (P14635 whole entry partner): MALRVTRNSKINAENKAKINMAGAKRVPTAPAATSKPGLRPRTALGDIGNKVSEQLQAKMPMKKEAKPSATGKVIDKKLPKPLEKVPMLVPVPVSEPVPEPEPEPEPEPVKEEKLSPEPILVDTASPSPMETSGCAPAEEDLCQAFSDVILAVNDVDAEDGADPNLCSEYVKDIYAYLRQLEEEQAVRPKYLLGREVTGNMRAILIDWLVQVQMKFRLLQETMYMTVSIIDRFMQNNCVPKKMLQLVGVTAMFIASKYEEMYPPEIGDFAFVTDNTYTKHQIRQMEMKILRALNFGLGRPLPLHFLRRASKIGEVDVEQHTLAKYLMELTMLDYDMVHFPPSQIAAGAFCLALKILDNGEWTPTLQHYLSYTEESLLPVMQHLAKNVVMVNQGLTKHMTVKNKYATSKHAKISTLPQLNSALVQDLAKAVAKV

Compound | IC50 (CDK1/cyclinB) [µM] | IC50 (CDK2/cyclinA) [µM] | IC50 (CDK9/cyclinT1) [µM]
COc1ncccc1-c1ccnc(Nc2cccc(S(=O)(=O)NC3CCCCC3)c2)n1 [Compound 104, N-Cyclohexyl-3-[4-(2-methoxy-pyridin-3-yl)-pyrimidin-2-ylamino]-benzenesulfonamide] | > 50 | > 50 | > 50
COc1ncccc1-c1ccnc(Nc2ccc([N+](=O)[O-])cc2)n1 [Compound 116, [4-(2-Methoxy-pyridin-3-yl)-pyrimidin-2-yl]-(4-nitro-phenyl)-amine] | > 50 | > 50 | > 50
COc1ncccc1-c1ccnc(Nc2cccc(N3CCCC3)c2)n1 [Compound 106, [4-(2-Methoxy-pyridin-3-yl)-pyrimidin-2-yl]-(3-pyrrolidin-1-yl-phenyl)-amine] | 5 to 15 | 15 to 50 | < 5
CN(C)CCNc1ncccc1-c1ccnc(Nc2cccc(Cl)c2)n1 [Compound 53, N-{3-[2-(3-Chloro-phenylamino)-pyrimidin-4-yl]-pyridin-2-yl}-N′,N′-dimethyl-ethane-1,2-diamine] | 15 to 50 | 5 to 15 | < 5
COc1ncccc1-c1ccnc(Nc2cccc(S(=O)(=O)N3CCCCC3)c2)n1 [Compound 107, [4-(2-Methoxy-pyridin-3-yl)-pyrimidin-2-yl]-[3-(piperidine-1-sulfonyl)-phenyl]-amine] | 5 to 15 | < 5 | < 5
COc1ncccc1-c1ccnc(Nc2cccc(C(=O)O)c2)n1 [Compound 94, 3-[4-(2-Methoxy-pyridin-3-yl)-pyrimidin-2-ylamino]-benzoic acid] | 15 to 50 | < 5 | 15 to 50
COc1ncccc1-c1ccnc(Nc2cccc(C(=O)NCCN(C)C)c2)n1 [Compound 97, N-(2-Dimethylamino-ethyl)-3-[4-(2-methoxy-pyridin-3-yl)-pyrimidin-2-ylamino]-benzamide] | 5 to 15 | 5 to 15 | < 5
CC(=O)NCCCNc1ncccc1-c1nc(Nc2cccc(Cl)c2)ncc1C [Compound 66, N-(3-{3-[2-(3-Chloro-phenylamino)-5-methyl-pyrimidin-4-yl]-pyridin-2-ylamino}-propyl)-acetamide] | > 50 | 15 to 50 | < 5
Clc1cccc(Nc2nccc(-c3cccnc3NCC3CCCCC3)n2)c1 [Compound 50, (3-Chloro-phenyl)-{4-[2-(cyclohexylmethyl-amino)-pyridin-3-yl]-pyrimidin-2-yl}-amine] | > 50 | > 50 | > 50
COc1ncccc1-c1ccnc(Nc2cccc(-c3ccccc3)c2)n1 [Compound 115, Biphenyl-3-yl-[4-(2-methoxy-pyridin-3-yl)-pyrimidin-2-yl]-amine] | > 50 | > 50 | < 5
CCNS(=O)(=O)c1cccc(Nc2nccc(-c3cccnc3OC)n2)c1 [Compound 101, N-Ethyl-3-[4-(2-methoxy-pyridin-3-yl)-pyrimidin-2-ylamino]-benzenesulfonamide] | > 50 | < 5 | < 5
COc1ncccc1-c1ccnc(Nc2cccc(C(=O)OC(C)(C)C)c2)n1 [Compound 109, 3-[4-(2-Methoxy-pyridin-3-yl)-pyrimidin-2-ylamino]-benzoic acid tert-butyl ester] | > 50 | < 5 | < 5
CC(=O)OCCCNc1ncccc1-c1ccnc(Nc2cccc(Cl)c2)n1 [Compound 76, Acetic acid 3-{3-[2-(3-chloro-phenylamino)-pyrimidin-4-yl]-pyridin-2-ylamino}-propyl ester] | 5 to 15 | < 5 | < 5
CCCCNc1ncccc1-c1nc(Nc2cccc(Cl)c2)ncc1C [Compound 57, [4-(2-Butylamino-pyridin-3-yl)-5-methyl-pyrimidin-2-yl]-(3-chloro-phenyl)-amine] | > 50 | > 50 | < 5

Now from value to molecule:

IC50 (CDK1/cyclinB) [µM] | IC50 (CDK2/cyclinA) [µM] | IC50 (CDK9/cyclinT1) [µM] | Compound
5 to 15 | > 50 | < 5 | CC(C)(C)CC(=O)NCCCNc1ncccc1-c1ccnc(Nc2cccc(Cl)c2)n1 [Compound 71, N-(3-{3-[2-(3-Chloro-phenylamino)-pyrimidin-4-yl]-pyridin-2-ylamino}-propyl)-3,3-dimethyl-butyramide]
< 5 | < 5 | < 5 | CC(=O)NCCNc1ncccc1-c1ccnc(Nc2cccc(Cl)c2)n1 [Compound 54, N-(2-{3-[2-(3-Chloro-phenylamino)-pyrimidin-4-yl]-pyridin-2-ylamino}-ethyl)-acetamide]
5 to 15 | < 5 | < 5 | COCCCNc1ncccc1-c1ccnc(Nc2cccc(Cl)c2)n1 [Compound 75, (3-Chloro-phenyl)-{4-[2-(3-methoxy-propylamino)-pyridin-3-yl]-pyrimidin-2-yl}-amine]
5 to 15 | 5 to 15 | < 5 | CNCCCNc1ncccc1-c1ccnc(Nc2cccc(Cl)c2)n1 [Compound 62, N-{3-[2-(3-Chloro-phenylamino)-pyrimidin-4-yl]-pyridin-2-yl}-N′-methyl-propane-1,3-diamine]
< 5 | < 5 | < 5 | CNS(=O)(=O)c1cccc(Nc2nccc(-c3cccnc3OC)n2)c1 [Compound 100, 3-[4-(2-Methoxy-pyridin-3-yl)-pyrimidin-2-ylamino]-N-methyl-benzenesulfonamide]
< 5 | < 5 | < 5 | COCCCNc1nccc(-c2ccnc(Nc3cccc(Cl)c3)n2)c1C [Compound 18, (3-Chloro-phenyl)-{4-[2-(3-methoxy-propylamino)-3-methyl-pyridin-4-yl]-pyrimidin-2-yl}-amine]
< 5 | < 5 | < 5 | COc1ncccc1-c1ccnc(Nc2cccc(S(=O)(=O)NCCO)c2)n1 [Compound 103, N-(2-Hydroxy-ethyl)-3-[4-(2-methoxy-pyridin-3-yl)-pyrimidin-2-ylamino]-benzenesulfonamide]
< 5 | < 5 | < 5 | Cc1cnc(Nc2cccc(Cl)c2)nc1-c1cccnc1NCCCN [Compound 56, N-{3-[2-(3-Chloro-phenylamino)-5-methyl-pyrimidin-4-yl]-pyridin-2-yl}-propane-1,3-diamine]
< 5 | < 5 | < 5 | CC(=O)NCCCCNc1ncccc1-c1ccnc(Nc2cccc(Cl)c2)n1 [Compound 85, N-(4-{3-[2-(3-Chloro-phenylamino)-pyrimidin-4-yl]-pyridin-2-ylamino}-butyl)-acetamide]
< 5 | < 5 | < 5 | COc1ncccc1-c1ccnc(Nc2cccc(C(N)=O)c2)n1 [Compound 95, 3-[4-(2-Methoxy-pyridin-3-yl)-pyrimidin-2-ylamino]-benzamide]
< 5 | < 5 | < 5 | CCNC(=O)c1cccc(Nc2nccc(-c3cccnc3OC)n2)c1 [Compound 96, N-Ethyl-3-[4-(2-methoxy-pyridin-3-yl)-pyrimidin-2-ylamino]-benzamide]

— patent publication US20100048597A1 (Novartis AG, priority 2006, published 2010)
